Experiments:
MC3T3-E1 cells = assay: ECM mineralization by Alizarin Red stain; format: cell-based, mouse; conditions: for matrix mineralization (Alizarin Red): MC3T3-E1, as early as 14 days of treatment
Protocol: Differentiation of MC3T3-E1 cells was induced with 50 μg/mL ascorbic acid (Sigma-Aldrich) and 5 mM β-glycerophosphate (Sigma-Aldrich) in medium containing 5% FBS. RAW 264.7 cells were cultured in Dulbecco's modified Eagle's medium (DMEM, Invitrogen, Carlsbad, Calif., USA) supplemented with 10% fetal bovine serum (Hyclone) and 2 mM glutamine (Gibco, Carlsbad, Calif., USA). Cells were seeded in culture dishes at a density of 20,000 cells/cm^2 and cultured overnight unless stated otherwise. Before cells were treated with compounds, the culture medium was changed.
Calvariae from 2 to 3-day-old and from 7-week old C57BL/6 mice were dissected aseptically. The calvarial bone explants were cultured in 48-well plates in α-MEM (Biochrom) containing 10% FCS (Biochrom), 50 μg/mL ascorbic acid (Sigma-Aldrich), 5 mM β-glycerophosphate (Sigma-Aldrich), and 10 μg/mL gentamicin (Sigma-Aldrich). The day after dissection, medium was changed, and a part of the explants was treated with 3 μM L- or DL-SFN for 12 days. Thereafter, one part of the calvariae were fixed for 1 hour in 4% para-formaldehyde (PFA), and mineralization was measured by Alizarin Red S stain (Sigma-Aldrich). For this purpose, Alizarin Red S dye was extracted using 10% cetylpyridinium chloride (CPC) in 10 mM sodiumphosphate (pH=7.0) for 45 minutes at room temperature. Alizarin Red S absorbance was measured at 562 nm in a multi-plate reader (Tecan, Maennedorf, Switzerland) and normalized to total protein amount measured by bicinchoninic acid assay (Thermo Fisher Scientific, Waltham, Mass., USA). From the other part of the calvariae, total RNA was extracted.

MC3T3 cells = assay: Osteogenic differentiation of MC3T3 cells under EZH2 inhibition; format: cell-based, mouse; conditions: 1 μM UNC1999
Protocol: MC3T3 cells were seeded in 6-well plates in maintenance medium (10,000 cells/cm^2). The following day, maintenance medium was replaced with osteogenic medium (αMEM supplemented with 50 μg/mL ascorbic acid (Sigma) and 4 mM beta glycerol phosphate (Sigma)) containing vehicle or EZH2 inhibitor. Three days later, vehicle or EZH2 inhibitors were added again with osteogenic medium. On day six, EZH2 inhibitor and vehicle were removed, and fresh osteogenic medium added.
Media were changed every three days. RNA was isolated at indicated times. On day 6, cells were fixed in 10% neutral buffered formalin and stained with 5-bromo-4-chloro-3-indolyl-phosphate/nitro blue tetrazolium to monitor the enzymatic activity of alkaline phosphatase (Promega). On day 14 (AMCs) and days 21-25 (MC3T3), cells were fixed in 10% neutral buffered formalin and stained with 2% Alizarin Red to visualize calcium deposition. Absorption of alizarin red stain was normalized to total DNA as measured by Hoechst staining of the nuclei.

RAW 264.7 cells = assay: RT-qPCR mRNA expression; format: cell-based, mouse; conditions: RAW 264.7 induced with RANKL and MCSF, co-treatment with SFN
Protocol: Total RNA was extracted using the SV Total RNA Isolation kit (Promega) following the supplier's instructions. cDNA was synthesized from about 0.5 μg RNA using the First Strand cDNA Synthesis kit (Roche) as described by the supplier. The resulting cDNAs were subjected to quantitative PCR amplification with a real-time cycler using the QUANTITECT™ SYBR® Green PCR Kit (Qiagen, Hilden, Germany) for the genes Alpl, Fas, Lox, Tet1, Tet2, and TAQMAN® Gene expression Master Mix (Applied Biosystems, Foster City, Calif., USA) for measuring Runx2, Bglap2, Colla1, Tnfsf11, and 18S rRNA expression (for primers, see Table 1). SYBR-Green RT-qPCR was started with an initial denaturation step at 95° C. for 10 minutes and then continued with 45 cycles consisting of 30 seconds denaturation at 95° C., 30 seconds annealing at primer-specific temperatures, and extension at 72° C. For measurement of the TAQMAN® assays, an initial denaturation at 95° C. for 10 minutes was applied, followed by 45 cycles alternating 60 seconds at 60° C. and 15 seconds at 95° C. All RT-qPCR assays were performed in triplicate, and expression was evaluated using the comparative quantification method (Pfaffl, Nucleic Acids Res., 29:e45 (2001)).

[1] = system: primary mouse osteoclasts; assay: Osteoclastic resorption on dentin slices; format: cell-based; conditions: 3 μM L- or DL-SFN, 14 days
Protocol: Primary mouse tissues or cells were obtained according to procedures that conform to the regulatory guidelines of the Institutional Animal Care and Use Committee of the Medical University of Vienna. Primary mouse osteoclasts were harvested from 8-week old C57BL/6 mice, which were sacrificed, and bone marrow cells were isolated from tibias and femurs under aseptic conditions and cultured in α-MEM (Biochrom) containing 10% FCS (Biochrom), […] (Sigma-Aldrich) and macrophage colony stimulating factor (MCSF1, 30 ng/mL). After 24 hours, non-adherent cells were seeded onto sterile, 300 μm thick dentin slices (elephant ivory) at 700,000 cells/cm^2 in αMEM supplemented with 10% FBS, 2 mM 1-glutamine, 30 μg/mL gentamycin, 20 ng/mL M-CSF, and 2 ng/mL RANKL (R&D Systems, Minneapolis, Minn., USA). Culture medium was changed twice per week, and cells were cultured for 14 days.
After culturing the primary mouse osteoclasts for 14 days on dentin slices in the presence or absence of 3 μM L- or DL-SFN, substrates were put into water, sonicated for 10 minutes to remove living cells and air-dried. Photographs were obtained by reflected light microscopy (objective 20×) of the entire substrate surface, and resorption trails and pits were analyzed and quantified with standard image analysis software (ImageJ, rsbweb.nih.gov/ij/). […]

[2] = system: sham operated or ovariectomized (OVX) C57B16/J female mice; assay: In vivo analysis of SFN effects on bone, μCT; design: species or system mouse; conditions: OVX mice; mitigation of the OVX-dependent decrease of trabecular number
Protocol: Analysis of SFN on mice was performed using a protocol similar to that described elsewhere (Kong et al., Arthritis Rheum., 62:159-170 (2010)). In the experimental setting herein, eight week old sham operated or ovariectomized (OVX) C57B16/J female mice were purchased from Charles River laboratories. Mice were injected with 7.5 mM DL-SFN (200 μL of SFN at a concentration of 63.8 mg/mL/kg dissolved in ethanol and further diluted in PBS) intraperitoneally every other day for five weeks. Control mice received vehicle alone.
Images from tibias fixed in 4% formaldehyde were acquired in a SkyScan 1174 with a resolution of 6 μm (X-ray voltage 50 kV). Image reconstruction was performed by applying a modified Feldkamp algorithm using the Skyscan Nrecon software. 3D and 2D morphometric parameters were calculated for the trabecular bone (350 consecutive slides, 6 μm thick) starting from 300 μm from the growth plate. Threshold values were applied for segmenting trabecular bone corresponding to bone mineral density values of 0.6/cm^3 calcium hydroxyapatite. 3D parameters were based on analysis of a Marching Cubes type model with a rendered surface. Calculation all of 2D areas and perimeters was based on the Pratt algorithm (Pratt et al., IEEE Trans. Biomed. Eng., 38, 306-309 (1991). Bone structural variables and nomenclature were used according to Bouxsein et al. (J. Bone Miner. Res., 25:1468-1486 (2010)).

Row | Compound | matrix mineralization (Alizarin Red) (MC3T3-E1 cells) | osteogenic differentiation of MC3T3 cells (MC3T3 cells) | expression of classical osteoclastic markers (Acp5, Clcr, Ctsk) (RAW 264.7 cells) | potency in stimulating matrix mineralization relative to DMSO (MC3T3-E1 cells; MC3T3-E1) | area resorbed by primary mouse osteoclast cultures on ivory discs [1] | bone loss due to estrogen-deficiency [2]
1 | C[S+](C)[O-] [DMSO, methanesulfinyl methane] | increased matrix mineralization | – | – | – | – | –
2 | CCCc1cc(C)[nH]c(=O)c1CNC(=O)c1cc(-c2ccc(N3CCN(C(C)C)CC3)nc2)cc2c1cnn2C(C)C [UNC1999, N-[(6-methyl-2-oxo-4-propyl-1,2-dihydropyridin-3-yl)methyl]-1-(propan-2-yl)-6-{6-[4-(propan-2-yl)piperazin-1-yl]pyridin-3-yl}-1H-indazole-4-carboxamide] | – | promotes | – | – | – | –
3 | 1-isothiocyanato-5-methanesulfinylpentane [SFN] | increased matrix mineralization | – | no appreciable changes | at least four orders of magnitude more potent than DMSO | significantly reduced | reduced bone loss
